Data published in patent US4143041A, “4'-Deoxyvincristine and related compounds” (Eli Lilly and Company, priority 1977, dated 1979).
Where a name gives a salt, the structure may show the parent alone.

How the values were obtained:
[1] = system: B16 melanoma; experiment: transplanted B16 melanoma in mice (survival); assay type: in vivo; conditions: IP
Description: (§1) The compounds of this invention, as represented by Formula II above, particularly those in which R^1 is acetoxy, are powerful anti-tumor agents.
(§2) The following table -- Table 1 -- gives the results of several experiments in which transplanted tumors in mice were treated successfully with a compound of this invention.
(§3) In the table, column 1 gives the name of the compound; column 2, the transplanted tumor; column 3, the dose level or dose level range and the number of days the dosage was administered; column 4, the route of administration, and column 5, the percent inhibition of tumor growth or percent prolongation of survival time, e.g., B16. (ROS is an abbreviation of Ridgeway osteogenic sarcoma; GLS for Gardner lymphosarcoma; P1534(J) and L1210 are leukemias; CA755 is an adenocarcinoma; and B16 is a melanoma.).
**Delayed treatment-dosed 5th, 9th and 13th days

[2] = system: GLS (Gardner lymphosarcoma); experiment: transplanted Gardner lymphosarcoma (GLS) in mice; assay type: in vivo
Description: as §1, §2, §3

[3] = system: 755 (CA755 adenocarcinoma); experiment: transplanted CA755 adenocarcinoma in mice; assay type: in vivo; conditions: IP
Description: as §1, §2, §3

[4] = system: experimental tumors; conditions: cited from earlier work
[5] = system: experimental malignancies; conditions: cited from earlier work
[6] = system: transplanted tumors; experiment: anti-tumor / oncolytic activity against transplanted tumors in mice; assay type: in vivo
Source text: as §1

[7] = system: L1210 leukemia; experiment: transplanted L1210 leukemia in mice; assay type: in vivo; conditions: IP
Description: as §1, §2, §3

[8] = system: ROS (Ridgeway osteogenic sarcoma); experiment: transplanted Ridgeway osteogenic sarcoma (ROS) in mice; assay type: in vivo; conditions: IP
Description: as §1, §2, §3

[9] = cited from earlier work
[10] = pKa' in 66% DMF; assay type: physicochemical
[11] = system: P1534(J) leukemia; experiment: transplanted P1534(J) leukemia in mice; assay type: in vivo; conditions: IP
Description: as §1, §2, §3

Structure (SMILES): CC[C@H]1C[C@@H]2CN(CCc3c([nH]c4ccccc34)[C@@](C(=O)OC)(c3cc4c(cc3OC)N(C=O)[C@H]3[C@@](O)(C(=O)OC)[C@H](O)[C@]5(CC)C=CCN6CC[C@]43[C@@H]65)C2)C1 [4'-Deoxy-4-desacetyl 1-desmethyl-1-formyl-leurosidine sulfate]
- Percent Inhibition or Prolongation of Survival Time ([1]; 0.15-0.6 mg./kg. × 3 days, **delayed treatment, dosed 5th, 9th and 13th days): 31 -62%
- Percent Inhibition or Prolongation of Survival Time ([2]; 0.18 mg./kg. × 3 days, route not given): 95%
- Percent Inhibition or Prolongation of Survival Time (Toxic) ([2]; 0.6 mg./kg. × 3 days, route not given): Toxic
- Percent Inhibition or Prolongation of Survival Time ([2]; 0.25-0.40 mg./kg. × 3 days, route not given): 94-100%

Structure (SMILES): CC[C@@H]1C[C@@H]2CN(CCc3c([nH]c4ccccc34)[C@@](C(=O)OC)(c3cc4c(cc3OC)N(C=O)[C@H]3[C@@](O)(C(=O)OC)[C@H](OC(C)=O)[C@]5(CC)C=CCN6CC[C@]43[C@@H]65)C2)C1 [4'-Deoxyvincristine sulfate, 4'-deoxyvincristine sulfate]
- Percent Inhibition or Prolongation of Survival Time ([1]; 0.30-0.9 mg./kg. × 3 days, *1 or more indefinite survivors): 36-143%
- Percent Inhibition or Prolongation of Survival Time (Toxic) ([3]; 0.9 mg./kg. × 3 days): Toxic
- Percent Inhibition or Prolongation of Survival Time ([3]; 0.06-0.13 mg./kg. × 9-10 days): 15-100%
- Percent Inhibition or Prolongation of Survival Time ([3]; 0.1-0.3 mg./kg. × 3 days): 36-100%
- Percent Inhibition or Prolongation of Survival Time (Toxic) ([3]; 0.25-1.8 mg./kg. × 9-10 days): Toxic
- Percent Inhibition or Prolongation of Survival Time ([2]; 0.18-0.25 mg./kg. × 3 days, IP): 62-94%
- Percent Inhibition or Prolongation of Survival Time (Toxic) ([2]; 0.4-0.6 mg./kg. × 3 days, IP): Toxic

Structure (SMILES): CC[C@@H]1C[C@@H]2CN(CCc3c([nH]c4ccccc34)[C@@](C(=O)OC)(c3cc4c(cc3OC)N(C)[C@H]3[C@@](O)(C(=O)OC)[C@H](OC(C)=O)[C@]5(CC)C=CCN6CC[C@]43[C@@H]65)C2)C1 [deoxy VLB "A"]
- oncolytic activity in experimental tumors in mice [4]: lack reproducible activity
- activity in the treatment of experimental malignancies in animals [5]: active

Structure (SMILES): CCC1(O)CN2CCc3c([nH]c4ccccc34)C(C(=O)OC)(c3cc4c(cc3OC)N(C)C3C(O)(C(=O)OC)CC5(CC)C=CCN6CCC43C65)CC(C2)C1O (stereo not drawn) [4-desacetoxy-3'-hydroxyvinblastine]
- activity in the treatment of experimental malignancies in animals [5]: active

Structure (SMILES): CC[C@@]1(O)C[C@@H]2CN(CCc3c([nH]c4ccccc34)[C@@](C(=O)OC)(c3cc4c(cc3OC)N(C)[C@H]3[C@@](O)(C(=O)OC)[C@H](OC(C)=O)[C@]5(CC)C=CCN6CC[C@]43[C@@H]65)C2)C1 [leurosidine]
- activity in the treatment of experimental malignancies in animals [5]: active

Structure (SMILES): CC[C@]1(O)C[C@@H]2CN(CCc3c([nH]c4ccccc34)[C@@](C(=O)OC)(c3cc4c(cc3OC)N(C)[C@H]3[C@@](O)(C(=O)OC)[C@H](OC(C)=O)[C@]5(CC)C=CCN6CC[C@]43[C@@H]65)C2)C1 [vincaleukoblastine]
- activity in the treatment of experimental malignancies in animals [5]: active

Structure (SMILES): CC[C@H]1C[C@@H]2CN(CCc3c([nH]c4ccccc34)[C@@](C(=O)OC)(c3cc4c(cc3OC)N(C)[C@H]3[C@@](O)(C(=O)OC)[C@H](O)[C@]5(CC)C=CCN6CC[C@]43[C@@H]65)C2)C1 [4'-deoxy-4-desacetylleurosidine]
- anti-tumor / oncolytic activity [6]: oncolytic agent

Structure (SMILES): CC[C@]1(O)C[C@@H]2CN(CCc3c([nH]c4ccccc34)[C@@](C(=O)OC)(c3cc4c(cc3OC)N(C=O)[C@H]3[C@@](O)(C(=O)OC)[C@H](OC(C)=O)[C@]5(CC)C=CCN6CC[C@]43[C@@H]65)C2)C1 [leurocristine]
- activity in the treatment of experimental malignancies in animals [5]: active

Structure (SMILES): CCC12CN3CCc4c([nH]c5ccccc45)[C@@](C(=O)OC)(c4cc5c(cc4OC)N(C=O)[C@H]4[C@@](O)(C(=O)OC)[C@H](OC(C)=O)[C@]6(CC)C=CCN7CC[C@]54[C@@H]76)C[C@@H](C3)C1O2 (stereo partly drawn) [leuroformine, N-formylleurosine]
- activity in the treatment of experimental malignancies in animals [5]: active

Structure (SMILES): CC[C@]1(O)C[C@@H]2CN(CCc3c([nH]c4ccccc34)[C@@](C(=O)OC)(c3cc4c(cc3OC)N(C)[C@@H]3[C@]45CCN4CC=C[C@@](CC)(C[C@]3(O)C(=O)OC)[C@H]45)C2)C1 [4-desacetoxy vinblastine]
- activity in the treatment of experimental malignancies in animals [5]: active

Structure (SMILES): CC[C@H]1C[C@@H]2CN(CCc3c([nH]c4ccccc34)[C@@](C(=O)OC)(c3cc4c(cc3OC)N(C=O)[C@H]3[C@@](O)(C(=O)OC)[C@H](OC(C)=O)[C@]5(CC)C=CCN6CC[C@]43[C@@H]65)C2)C1 [4'-Deoxy-1-formylleurosidine sulfate]
- Percent Inhibition or Prolongation of Survival Time ([7]; 0.25 mg./kg. × 3 days, *1 or more indefinite survivors): 65%
- Percent Inhibition or Prolongation of Survival Time (Toxic) ([7]; 0.4-0.6 mg./kg. × 3 days): Toxic
- Percent Inhibition or Prolongation of Survival Time ([2]; 0.18 mg./kg. × 3 days, IP): 100%
- Percent Inhibition or Prolongation of Survival Time (Toxic) ([2]; 0.25 mg./kg. × 3 days, IP): Toxic
- Percent Inhibition or Prolongation of Survival Time ([2]; 0.4 mg./kg. × 3 days, IP): 100%
- Percent Inhibition or Prolongation of Survival Time (Toxic) ([2]; 0.6 mg./kg. × 3 days, IP): Toxic
- Percent Inhibition or Prolongation of Survival Time ([8]; 0.18 mg./kg. × 3 days): 93%
- Percent Inhibition or Prolongation of Survival Time (Toxic) ([8]; 0.25 mg./kg. × 3 days): Toxic
- Percent Inhibition or Prolongation of Survival Time ([8]; 0.4 mg./kg. × 3 days): 100%

Structure (SMILES): CC[C@H]1C[C@@H]2CN(CCc3c([nH]c4ccccc34)[C@@](C(=O)OC)(c3cc4c(cc3OC)N(C)[C@H]3[C@@](O)(C(=O)OC)[C@H](O)[C@]5(CC)C=CCN6CC[C@]43[C@@H]65)C2)C1 [4'-deoxy-4-desacetyl-leurosidine sulfate, 4'-deoxy-4-desacetylleurosidine sulfate]
- Percent Inhibition or Prolongation of Survival Time ([1]; 0.15 mg./kg. × 3 days, **delayed treatment, dosed 5th, 9th and 13th days): 77%
- Percent Inhibition or Prolongation of Survival Time ([1]; 0.3 mg./kg. × 3 days, **delayed treatment, dosed 5th, 9th and 13th days): 103%
- Percent Inhibition or Prolongation of Survival Time (Toxic) ([1]; 0.6 mg./kg. × 3 days, **delayed treatment, dosed 5th, 9th and 13th days): Toxic
- Percent Inhibition or Prolongation of Survival Time ([3]; 0.25 mg./kg. × 3 days): 32%
- Percent Inhibition or Prolongation of Survival Time ([3]; 0.4 mg./kg. × 3 days): 37%
- Percent Inhibition or Prolongation of Survival Time (Toxic) ([3]; 0.6 mg./kg. × 3 days): Toxic
- Percent Inhibition or Prolongation of Survival Time (Toxic) ([2]; 0.4 mg./kg. × 3 days, IP): Toxic
- Percent Inhibition or Prolongation of Survival Time ([2]; 0.6 mg./kg. × 3 days, IP): 63%
- Percent Inhibition or Prolongation of Survival Time (Toxic) ([2]; 0.9 mg./kg. × 3 days, IP): Toxic

Structure (SMILES): CC[C@H]1C[C@@H]2CN(CCc3c([nH]c4ccccc34)[C@@](C(=O)OC)(c3cc4c(cc3OC)N(C)[C@H]3[C@@](O)(C(=O)OC)[C@H](OC(C)=O)[C@]5(CC)C=CCN6CC[C@]43[C@@H]65)C2)C1 [deoxy VLB "B"]
- oncolytic activity in experimental tumors in mice [4]: lack reproducible activity
- activity in the treatment of experimental malignancies in animals [5]: active

Structure (SMILES): CCC12CN3CCc4c([nH]c5ccccc45)[C@@](C(=O)OC)(c4cc5c(cc4OC)N(C)[C@H]4[C@@](O)(C(=O)OC)[C@H](OC(C)=O)[C@]6(CC)C=CCN7CC[C@]54[C@@H]76)C[C@@H](C3)C1O2 (stereo partly drawn) [leurosine]
- clinical response [9]: limited
- oncolytic activity in experimental tumors in mice [4]: demonstrated oncolytic activity
- activity in the treatment of experimental malignancies in animals [5]: active

Structure (SMILES): CCC1(O)CN2CCc3c([nH]c4ccccc34)C(C(=O)OC)(c3cc4c(cc3OC)N(C)C3C(O)(C(=O)OC)C(OC(C)=O)C5(CC)C=CCN6CCC43C65)CC(C2)C1O (stereo not drawn) [vincadioline]
- activity in the treatment of experimental malignancies in animals [5]: active

Structure (SMILES): CCC1(O)CN2CCc3c([nH]c4ccccc34)C(C(=O)OC)(c3cc4c(cc3OC)N(C)C3C(O)(C(=O)OC)C(OC(C)=O)C5(CC)C=CCN6CCC43C65)CC(O)(C2)C1 (stereo not drawn) [leurocolombine]
- activity in the treatment of experimental malignancies in animals [5]: active

Structure (SMILES): CC[C@H]1C[C@@H]2CN(CCc3c([nH]c4ccccc34)[C@@](C(=O)OC)(c3cc4c(cc3OC)N(C=O)[C@H]3[C@@](O)(C(=O)OC)[C@H](OC(C)=O)[C@]5(CC)C=CCN6CC[C@]43[C@@H]65)C2)C1 [4'-deoxy-1-formylleurosidine]
- Percent Inhibition or Prolongation of Survival Time (Toxic) ([1]; 0.9 mg./kg. × 3 days): Toxic
- Percent Inhibition or Prolongation of Survival Time ([1]; 0.25-0.6 mg./kg. × 3 days): 98-146%
- Percent Inhibition or Prolongation of Survival Time ([3]; 0.25 mg./kg. × 3 days): 47%
- Percent Inhibition or Prolongation of Survival Time ([3]; 0.4 mg./kg. × 3 days): 73%
- Percent Inhibition or Prolongation of Survival Time ([3]; 0.6 mg./kg. × 3 days): 54%
- Percent Inhibition or Prolongation of Survival Time ([3]; 0.03-0.09 mg./kg. × 9 days): 8-72%
- Percent Inhibition or Prolongation of Survival Time ([3]; 0.06-0.135 mg./kg. × 10 days): 33-93%
- Percent Inhibition or Prolongation of Survival Time (Toxic) ([3]; 0.2-0.3 mg./kg. × 10 days): Toxic
- Percent Inhibition or Prolongation of Survival Time ([2]; 0.25-0.6 mg./kg. × 3 days, IP): 73-100%
- pKa [10]: 9
- Percent Inhibition or Prolongation of Survival Time (Toxic) ([11]; 0.18 mg./kg. × 10 days): Toxic
- Percent Inhibition or Prolongation of Survival Time ([11]; 0.08-0.18 mg./kg. × 10 days): 9-46%
